Assay [1] concerns prostaglandin synthetases of lungs of guinea pigs. Nature of the assay: Inhibitory effect against biosynthesis of prostaglandins starting with arachidonic acid by prostaglandin synthetases of lungs of guinea pigs (Vane). The note with it: guinea pig lung homogenate supernatant, 10 μg arachidonic acid, 30 minutes at 37° C; prostaglandin-like activity read on isolated rat colon; read-out: CI50 (inhibited by 50% the biosynthesis activity). The assay is classed as biochemical. An excerpt:
C. INHIBITORY EFFECT AGAINST BIOSYNTHESIS OF PROSTAGLANDINS SYNTHESIS OF PROSTAGLANDINS STARTING WITH ARACHIDONIC ACID BY MEANS OF PROSTAGLANDIN SYNTHETASES OF LUNGS OF GUINEA PIGS.
This test used the procedure of Vane [Nature New Biology, Vol. 231 (1971), p. 232-235] wherein the lungs of adult guinea pigs (2 per series) were rapidly removed and washed with a modified, iced Bucher medium. The lung tissue was homogenized in a Turrax grinder in a minute and the homogenate was centrifuged for 20 minutes to 1200 g. The supernatant was used as a preparation of prostaglandin synthetases.
A solution of arachidonic acid in ethanol at a concentration of 10 mg/ml was diluted with a 0.2% aqueous sodium carbonate solution and was then diluted further with a modified Bucher medium to obtain a final acid concentration of 200 μg/ml. The biosynthesis inhibitors are put into aqueous or dilute alcohol (20% maximum) solutions. Tubes were prepared containing 1 ml of the prostaglandin synthetases preparation, 10 μg of arachidonic acid and 0.1 ml of inhibiting solution or, for the controls, an equal volume of water or dilute alcohol. The tubes were incubated with stirring for 30 minutes at 37° C in aerobic conditions and each test consisted of a tube containing a biosynthesis inhibitor, one biosynthesis control with incubated arachidonic acid and one control with non-incubated arachidonic acid. The latter control permitted a evaluation of amount of natural prostaglandins present in the ground lung and the results obtained with this control must therefore be taken away from the control of biosynthesis and from all the tests. The reactions were stopped by immension in boiling water until the proteins are coagulated. The dosage of "prostaglandin like" activity was effected biologically on the isolated rat colon suspended in Krebs liquid, mixed to augment the specificity, with antagonists to other contracturant mediators susceptible to interfere. The antagonists were mepyramine, scopolamine, methysergide, phenoxybenzamine and propanolol.
A comparison of the results registered in the presence or absence of a test product permitted the calculation of the percentage of biosynthesis inhibition. The CI50 dose which inhibited by 50% the biosynthesis activity was graphically obtained by straight line representing the percent of inhibition with reference to the incubated controls against the log of the concentration in μg/ml and the results are reported in Table II.

Another assay has as its system guinea pig ileon. The assay can be described thus: Relaxant activity on the guinea pig ileon (isolated organ bath). The settings on record: isolated terminal guinea pig ileon, oxygenated Tyrode liquid, 37° C; for minimal effective concentration: Cavia porcellus, read-out: Relaxant Activity (concentration which caused a suppression of spontaneous contractions and relaxed the organ). As for the experimental part:
The relaxant effect of the test compounds was determined on guinea pig ileon using the following procedure. The terminal portion of the guinea pig ileon was removed and washed with Tyrode solution at 37° C. It was then suspended in a bath of oxygenated Tyrode liquid at 37° C and the contractions were registered on a collector attached to a Sanborn polygraph. The test product was added to bath of the organ with a low volume and the concentration which caused a suppression of spontaneous contractions and relaxed the organ causing a lowering of the line of the base was considered to be relaxant.

In another assay the test system is mice. The assay can be described thus: Analgesic activity - stretching provoked by acetic acid (Koster et al). The assay is classed as in vivo. The settings on record: Mus musculus, 0.25 h, oral, one half hour before intraperitoneal 1% acetic acid 100 mg/kg, 15 minute observation, fasted, read-out: DA50 (dose which reduced the number of stretchings by 50%). The method, then:
The test procedure was that of Koster et al wherein an intraperitoneal injection of aqueous acetic acid in a concentration of 1% at a dose of 100 mg/kg caused in mice repeated movements of stretching and twisting which can persist for more than 6 hours. Analgesics prevent or lessen the syndrome. The test products were orally administered one half hour before the acetic acid injection and the mice were fasted from the day before the test. The stretching were counted for each mouse during a 15 minute observation period beginning right after the acetic acid injection and the analgesic effect was expressed as a percentage of protection with respect to the controls.

The text below walks through data of patent US4072755A, “Novel cyclopentanoic acid derivatives” (Roussel UCLAF, priority 1975, dated 1978).

Take `CCCCCCCCCC(=O)O[C@H](/C=C/[C@H]1CC[C@@H](O)[C@@H]1C(=O)OCC)CCCCC` (relative stereo) [Product G, ethyl (1RS, 2RS, 5RS, 3'SR) (1'E) 2-hydroxy-5-(3'-decanoyloxy-1'-octenyl)-cyclopentanecarboxylate]: in assay [1], the IC50 is 113 µM.

On to `CCCCCCCCCC(=O)O[C@H](/C=C/[C@H]1CC[C@H](O)[C@@H]1C(=O)OCC)CCCCC` (relative stereo) [Product C, ethyl (1RS, 2SR, 5RS, 3'SR) (1'E) 2-hydroxy-5-(3'-decanoyloxy-1'-octenyl)-cyclopentanecarboxylate], for which the minimal effective concentration with guinea pig ileon was determined as 20 µg/mL. Also, the IC50 in assay [1] worked out at 137 µM.

For the compound `CCCCC[C@@H](/C=C/[C@H]1CC[C@H](O)[C@@H]1C(=O)OCC)OC` (relative stereo) [Product D, ethyl (1RS, 2SR, 5RS, 3'SR) (1'E) 2-hydroxy-5-(3'methoxy-1'-octenyl)-cyclopentanecarboxylate], in the assay on guinea pig ileon, the minimal effective concentration stood at 5 µg/mL. Besides, the IC50 in assay [1] came out at 436 µM.

Regarding `CCCCC[C@@H](/C=C/[C@H]1CC[C@@H](O)[C@@H]1C(=O)OCC)OC` (relative stereo) [Product E, ethyl (1RS, 2RS, 5RS, 3'SR) (1'E) 2-hydroxy-5(3'-methoxy-1'-octenyl)-cyclopentanecarboxylate], the minimal effective concentration in the assay on guinea pig ileon stood at 10 µg/mL. Also, the IC50 in assay [1] came out at 671 µM.

For `CCCCC[C@@H](/C=C/[C@H]1CC[C@H](O)[C@@H]1C(=O)OCC)OC(=O)CCC(=O)O` (relative stereo) [Product F, ethyl (1RS, 2SR, 5RS, 3'SR) (1'E) 2-hydroxy-5-(3'-hemisuccinyloxy-1'-octenyl)-cyclopentanecarboxylate], in assay [1], the IC50 was 123 µM.

As to `CCCCC[C@H](O)/C=C/[C@H]1CC[C@H](O)[C@H]1CO` (racemic) [Product A, (1RS, 2SR, 5RS, 3'SR) (1'E) 2,3'-dihydroxy-5-(1'-octenyl)-cyclopentane methonol], the “Relaxant Activity (concentration which caused a suppression of spontaneous contractions and relaxed the organ)” value with guinea pig ileon came to 20 µg/mL.

Turning to `CCCCC[C@@H](/C=C/[C@H]1CC[C@H](O)[C@@H]1C(=O)OCC)OC(=O)c1ccccc1C(=O)O` (relative stereo) [Product B, ethyl (1RS, 2SR, 5RS, 3'SR) (1'E) 2-hydroxy-5-(3'-α-hemiphthaloyloxy-1'-octenyl)-cyclopentanecarboxylate], the ED50 in the assay on mice was roughly 100 mg/kg.
